Assay results published in ChEMBL document CHEMBL4385620, “Inhibition of polypeptide N-acetyl-α-galactosaminyltransferases is an underlying mechanism of dietary polyphenols preventing colorectal tumorigenesis” (Bioorg Med Chem, 2019).
Active and inactive are the calls of the source. The rule behind the calls is not given here.

Assays:
[1] = molecular target: T1, Polypeptide N-acetylgalactosaminyltransferase 2 (Homo sapiens, UniProt Q10471); test: Binding affinity of human recombinant FLAG-tagged ppGalNAcT2 expressed in HEK293 cells assessed as association rate by SPR analysis
T1 sequence (Q10471 whole entry): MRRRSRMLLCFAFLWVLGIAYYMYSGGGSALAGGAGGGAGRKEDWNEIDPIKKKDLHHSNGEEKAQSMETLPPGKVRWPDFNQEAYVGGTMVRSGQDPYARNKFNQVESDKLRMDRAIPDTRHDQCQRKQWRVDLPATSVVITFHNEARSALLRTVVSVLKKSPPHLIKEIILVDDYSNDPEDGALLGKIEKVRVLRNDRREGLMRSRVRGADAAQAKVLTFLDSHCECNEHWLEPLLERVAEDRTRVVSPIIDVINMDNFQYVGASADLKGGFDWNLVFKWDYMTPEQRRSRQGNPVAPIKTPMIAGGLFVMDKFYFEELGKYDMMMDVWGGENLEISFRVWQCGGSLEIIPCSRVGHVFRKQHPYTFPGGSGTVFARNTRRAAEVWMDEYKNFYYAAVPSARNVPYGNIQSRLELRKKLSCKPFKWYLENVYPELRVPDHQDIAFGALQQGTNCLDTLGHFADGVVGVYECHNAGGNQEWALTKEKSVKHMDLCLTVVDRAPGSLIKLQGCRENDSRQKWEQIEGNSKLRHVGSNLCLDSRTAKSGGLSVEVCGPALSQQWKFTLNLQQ

[2] = molecular target: T1, Polypeptide N-acetylgalactosaminyltransferase 2; test: Non-competitive inhibition of human recombinant FLAG-tagged ppGalNAcT2 expressed in HEK293 cells using UDP-GalNAc as substrate by HPLC-based enzyme assay
[3] = molecular target: Polypeptide N-acetylgalactosaminyltransferase 14 (Homo sapiens, UniProt Q96FL9); test: Inhibition of catalytic activity of ppGalNAcT14 (unknown origin) using EA2 peptide as substrate incubated for 30 mins by HPLC-based enzyme assay
Chain of Polypeptide N-acetylgalactosaminyltransferase 14 (Q96FL9 whole entry): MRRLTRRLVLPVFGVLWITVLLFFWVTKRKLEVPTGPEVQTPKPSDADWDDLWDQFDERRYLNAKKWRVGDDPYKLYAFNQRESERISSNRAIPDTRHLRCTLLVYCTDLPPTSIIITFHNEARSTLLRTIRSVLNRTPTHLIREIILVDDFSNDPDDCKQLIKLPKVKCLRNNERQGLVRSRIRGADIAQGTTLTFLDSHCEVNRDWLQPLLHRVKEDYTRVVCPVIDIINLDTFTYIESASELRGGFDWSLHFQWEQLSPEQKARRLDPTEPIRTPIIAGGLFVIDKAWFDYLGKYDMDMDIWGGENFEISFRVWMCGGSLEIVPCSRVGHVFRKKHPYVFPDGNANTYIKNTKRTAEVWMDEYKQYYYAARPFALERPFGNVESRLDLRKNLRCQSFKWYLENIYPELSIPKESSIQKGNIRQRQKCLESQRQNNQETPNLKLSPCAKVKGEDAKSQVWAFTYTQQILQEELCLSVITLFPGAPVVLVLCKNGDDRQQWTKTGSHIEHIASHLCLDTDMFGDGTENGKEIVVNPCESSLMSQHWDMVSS

[4] = molecular target: T2, Polypeptide N-acetylgalactosaminyltransferase 3 (Homo sapiens, UniProt Q14435); test: Inhibition of catalytic activity of ppGalNAcT3 (unknown origin) using EA2 peptide as substrate incubated for 30 mins by HPLC-based enzyme assay
T2 sequence (Q14435 whole entry): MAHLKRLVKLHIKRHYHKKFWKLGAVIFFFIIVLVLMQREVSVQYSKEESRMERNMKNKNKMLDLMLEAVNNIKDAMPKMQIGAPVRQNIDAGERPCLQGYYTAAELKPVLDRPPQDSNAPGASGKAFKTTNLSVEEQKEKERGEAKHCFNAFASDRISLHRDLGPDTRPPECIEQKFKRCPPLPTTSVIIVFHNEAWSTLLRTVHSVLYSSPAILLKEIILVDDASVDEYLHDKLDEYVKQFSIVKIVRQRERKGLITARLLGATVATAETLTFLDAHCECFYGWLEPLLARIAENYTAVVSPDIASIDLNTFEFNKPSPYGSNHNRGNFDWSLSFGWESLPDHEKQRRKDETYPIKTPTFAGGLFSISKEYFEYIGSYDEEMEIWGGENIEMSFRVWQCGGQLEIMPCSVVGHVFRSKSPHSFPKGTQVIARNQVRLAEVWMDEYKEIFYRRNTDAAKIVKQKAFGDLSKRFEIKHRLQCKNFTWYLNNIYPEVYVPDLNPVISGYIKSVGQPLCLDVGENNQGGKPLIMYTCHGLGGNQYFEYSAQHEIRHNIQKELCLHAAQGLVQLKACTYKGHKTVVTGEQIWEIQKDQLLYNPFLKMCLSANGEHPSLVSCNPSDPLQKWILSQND

[5] = molecular target: T1, Polypeptide N-acetylgalactosaminyltransferase 2; test: Inhibition of catalytic activity of human recombinant FLAG-tagged ppGalNAcT2 using Muc5AC peptide as substrate incubated for 30 mins by HPLC-based enzyme assay
[6] = molecular target: Polypeptide N-acetylgalactosaminyltransferase 2 (Homo sapiens, UniProt Q10471, W282A); test: Inhibition of catalytic activity of human recombinant FLAG-tagged ppGalNAcT2 W282A mutant expressed in HEK293 cells using EA2 peptide as substrate by HPLC-based enzyme assay
Chain of Polypeptide N-acetylgalactosaminyltransferase 2 (Homo sapiens, UniProt Q10471, W282A) (Q10471 whole entry W282A): as the sequence (Q10471 whole entry) above, with W282A counted along it

Homo sapiens = species: Homo sapiens; test: Ratio of IC50 for IC50 for human recombinant FLAG-tagged ppGalNAcT2 W282A mutant to IC50 for human recombinant FLAG-tagged ppGalNAcT2
[7] = molecular target: T1, Polypeptide N-acetylgalactosaminyltransferase 2; test: Inhibition of ppGalNAcT2 in human HT-29 cells assessed as reduction in O-GalNAc glycans by measuring VVA lectin expression at 20 to 60 uM incubated for 48 hrs by Western blot analysis; type: cell-based
HT-29 [8] = test: Effect on N-glycans in human HT-29 cells assessed as change in ConA expression at 40 uM incubated for 48 hrs by Western blot analysis; type: ADME, cell-based; conditions: ht-29, 48 h
HT-29 [9] = test: Effect on ppGalNAcT1 expression level in human HT-29 cells at 40 uM incubated for 48 hrs by Q-PCR analysis; type: ADME, cell-based; conditions: ht-29, 48 h
HT-29 [10] = test: Effect on ppGalNAcT2 expression level in human HT-29 cells at 40 uM incubated for 48 hrs by Q-PCR analysis; type: ADME, cell-based; conditions: ht-29, 48 h
HT-29 [11] = test: Effect on ppGalNAcT3 expression level in human HT-29 cells at 40 uM incubated for 48 hrs by Q-PCR analysis; type: ADME, cell-based; conditions: ht-29, 48 h
HT-29 [12] = test: Effect on ppGalNAcT5 expression level in human HT-29 cells at 40 uM incubated for 48 hrs by Q-PCR analysis; type: ADME, cell-based; conditions: ht-29, 48 h
HT-29 [13] = test: Effect on ppGalNAcT11 expression level in human HT-29 cells at 40 uM incubated for 48 hrs by Q-PCR analysis; type: ADME, cell-based; conditions: ht-29, 48 h
HT-29 [14] = test: Effect on ppGalNAcT12 expression level in human HT-29 cells at 40 uM incubated for 48 hrs by Q-PCR analysis; type: ADME, cell-based; conditions: ht-29, 48 h
HT-29 [15] = test: Effect on ppGalNAcT13 expression level in human HT-29 cells at 40 uM incubated for 48 hrs by Q-PCR analysis; type: ADME, cell-based; conditions: ht-29, 48 h
HT-29 [16] = test: Effect on ppGalNAcT14 expression level in human HT-29 cells at 40 uM incubated for 48 hrs by Q-PCR analysis; type: ADME, cell-based; conditions: ht-29, 48 h
HT-29 [17] = test: Effect on ppGalNAcT15 expression level in human HT-29 cells at 40 uM incubated for 48 hrs by Q-PCR analysis; type: ADME, cell-based; conditions: ht-29, 48 h
HT-29 [18] = test: Effect on ppGalNAcT16 expression level in human HT-29 cells at 40 uM incubated for 48 hrs by Q-PCR analysis; type: ADME, cell-based; conditions: ht-29, 48 h
Cricetulus griseus = species: Cricetulus griseus; test: Inhibition of ppGalNAcT2 in Chinese hamster ldlD cells assessed as reduction in O-GalNAc glycosylation by measuring metabolic labelled-GalNAz signal at 40 uM incubated for 48 hrs by click chemistry assay; type: cell-based
[19] = molecular target: T1, Polypeptide N-acetylgalactosaminyltransferase 2; test: Inhibition of ppGalNAcT2 in human Jurkat cells assessed as reduction in O-GalNAc glycosylation by measuring VVA lectin expression at 40 uM incubated for 48 hrs by Western blot analysis; type: cell-based
[20] = molecular target: T1, Polypeptide N-acetylgalactosaminyltransferase 2; test: Inhibition of ppGalNAcT2 in human HCT116 cells assessed as reduction in O-GalNAc glycosylation by measuring VVA lectin expression at 40 uM incubated for 48 hrs by Western blot analysis; type: cell-based
[21] = molecular target: T1, Polypeptide N-acetylgalactosaminyltransferase 2; test: Inhibition of ppGalNAcT2 in human SW480 cells assessed as reduction in O-GalNAc glycosylation by measuring VVA lectin expression at 40 uM incubated for 48 hrs by Western blot analysis; type: cell-based
HT-29 [22] = test: Cytotoxicity against human HT-29 cells at 40 uM incubated for 48 hrs by CCK-8 assay; type: cell-based; conditions: ht-29, 48 h
SW480 = test: Cytotoxicity against human SW480 cells at 40 uM incubated for 48 hrs by CCK-8 assay; type: cell-based; conditions: sw480, 48 h
RKO = test: Cytotoxicity against human RKO cells at 40 uM incubated for 48 hrs by CCK-8 assay; type: cell-based
HCT-116 [23] = test: Antimigratory activity in human HCT116 cells at 40 uM incubated for 48 hrs by crystal violet staining based method; type: functional, cell-based
HCT-116 [24] = test: Anti-invasive activity in human HCT116 cells at 40 uM incubated for 48 hrs by crystal violet staining based method; type: functional, cell-based
[25] = molecular target: T1, Polypeptide N-acetylgalactosaminyltransferase 2; test: Inhibition of ppGalNAcT2 in human HT-29 cells assessed as reduction in PDPN O-GalNAc glycosylation by at 40 uM incubated for 48 hrs by jacalin lectin based immunoprecipitation analysis; type: cell-based
HT-29 [26] = test: Effect on PDPN expression level in human HT-29 cells at 40 uM incubated for 48 hrs by Q-PCR analysis; type: ADME, cell-based; conditions: ht-29, 48 h

- kon [1]: 3532 M⁻¹ s⁻¹
- Ki [2]: 6.15 µM
- IC50 [3]: 0.46 µM
- IC50 [4]: 1.61 µM
- IC50 [5]: 2.07 µM
- IC50 [6]: 3.12 µM
- Ratio IC50 (Homo sapiens): 4
- inhibition [7]: Active
- inhibition [19]: Active
- inhibition [20]: Active
- inhibition [21]: Active
- inhibition [25]: Active
SMILES: O=c1oc2c(O)c(O)ccc2c2cc(O)c(O)cc12
- Activity (HT-29 [8]): Non-Toxic
- Activity (HT-29 [9]): Non-Toxic
- Activity (HT-29 [10]): Non-Toxic
- Activity (HT-29 [11]): Non-Toxic
- Activity (HT-29 [12]): Non-Toxic
- Activity (HT-29 [13]): Non-Toxic
- Activity (HT-29 [14]): Non-Toxic
- Activity (HT-29 [15]): Non-Toxic
- Activity (HT-29 [16]): Non-Toxic
- Activity (HT-29 [17]): Non-Toxic
- Activity (HT-29 [18]): Non-Toxic
- inhibition (Cricetulus griseus): Active
- Activity (HT-29 [22]): Non-Toxic
- Activity (SW480): Non-Toxic
- Activity (RKO): Non-Toxic
- Activity (HCT-116 [23]): Active
- Activity (HCT-116 [24]): Active
- Activity (HT-29 [26]): Non-Toxic
